Data from ChEMBL document CHEMBL1146745, “Studies on anti-Helicobacter pylori agents. Part 3: A novel, efficacious cephem derivative, FR193879” (Bioorg Med Chem Lett, 2004).

Legend:
[1] = biological target: Beta-lactamase TEM (Escherichia coli) (UniProt P62593); assay: Stability towards beta-lactamase was determined in penicillinase
[2] = biological target: Beta-lactamase TEM (Escherichia coli) (UniProt P62593); assay: Stability towards penicillinase was determined
[3] = biological target: Beta-lactamase TEM (Escherichia coli) (UniProt P62593); assay: Relative stability towards penicillinase was determined

NC(=O)Cc1csc(SC2=C(C(=O)O)N3C(=O)[C@@H](NC(=O)Cc4ccccc4)[C@H]3SC2)n1
Vmax [1]: 1.18 | Km [2]: 34.8 µg/mL | Ratio [3]: 9.38
